Reference: ChEMBL document CHEMBL3507680, “University of Dundee, Gates Library screen for HepG2 cell viability”

Experiment: Human HepG2 cell viability assay in 384 well format
Type: toxicity, cell-based
Set-up: dose 125 nL, time 70.5 hour; concentration not given beside the values
Details: HepG2 cells, read-out: Inhibition

Structure (SMILES) | cytotoxicity at 70.5 h
CC(=O)NCC(=O)N1Cc2c(-c3cccc(C)c3)nc(N)nc2C1C (stereo not drawn) | -13.1%
CN(C)C(=O)CN1C(=O)CCC12CCN(Cc1cccn1C)CC2 | 0.746%
Cc1cc(C)c(S(=O)(=O)Nc2c(C)nc(N(C)C)nc2C)cc1C | 7.13%
CCc1nc(CC(=O)N2CCN(c3cnccn3)CC2)cs1 | -0.0277%
COCCOCC(=O)N1CCc2cc(Cl)cc(Cl)c2C1 | -6.61%
CNC(=O)[C@H]1CC[C@@H]2[C@@H](CCN2C(=O)N(C)C)O1 | -5.62%
COCCN1CCO[C@H]2CN(Cc3cc[nH]n3)C[C@H]21 | -7.3%
COc1ccc(CN(C)c2nc3c(cnn3C)c(=O)[nH]2)c(OC)c1 | 18.3%
CN1CCCC(c2cccc(CCC(N)=O)n2)C1 (stereo not drawn) | -3.92%
Cc1ccc(CN2CCC3(CCC(=O)N3CC(=O)N(C)C)CC2)s1 | -13.1%
O=C(c1cc(F)cc2[nH]cnc12)N1CCCC1Cn1cccn1 (stereo not drawn) | -8.91%
Cc1ccc(CN2CCN(C(=O)c3ccc(Br)o3)CC2)cc1 | 27.9%
COc1cccc(-c2noc(-c3ccc(NCCCO)nc3)n2)c1OC | 2.28%
Cn1cc(CN2CCC3(CC2)NC(=O)CC3c2ccncc2)cn1 (stereo not drawn) | 12.2%
COc1coc(C(=O)Nc2nc(-c3cccnc3)cs2)cc1=O | -13.5%
O=C(Cn1ccnc1)N1CC[C@H](Oc2cccc(F)c2)[C@@H](O)CC1 | 13%
CNc1cccc(CC2COCCN(C(=O)c3cccnc3)C2)n1 (stereo not drawn) | -3.83%
C[C@@H]1CN(Cc2ccncc2)C[C@@]1(O)C1CC1 | -11.5%
CCc1cc(C(F)(F)F)c2c(C)nn(CC(=O)O)c2n1 | 4.66%
CN1CCc2c(C#N)c(NCc3cccnc3)n3cnnc3c2C1 | -27%
Cn1c(C2CC2)nc2cc(NC(=O)C3(O)CCCC3)ccc21 | -4.26%

Structure (SMILES) | cytotoxicity at 70.5 h
Cc1nc(N2CCN(C)CC2)ncc1C(=O)N1CCCCC1 | -0.181%
CCNC(=O)CN(CC)C(=O)c1cccc(Nc2cnn(C)c2)c1 | 6.01%
CCC(C)(C)C1CCCN1C(=O)c1coc(S(=O)(=O)NC)c1 (stereo not drawn) | 6.9%
COC(=O)COc1cc(NCc2c(C)noc2C)c(Cl)cc1C | -5.04%
CN(Cc1cccs1)C(=O)CN(C)C1CCc2ccccc21 (stereo not drawn) | -7.67%
Cc1nc(-c2ccsc2)ccc1C(=O)NCCC(=O)N1CCCC1 | -3.29%
CC(NC(=O)c1cccc[n+]1[O-])C1CC1 (stereo not drawn) | -4.24%
CC(C)(C)Cc1nnc(NCc2ccsc2)o1 | 28.5%
Cc1cc(C(=O)N2CCCC3(COCCN(CCN(C)C)C3)C2)no1 (stereo not drawn) | 1.65%
Clc1ccc(-n2cc(CNC3CCc4ncnn4C3)cn2)cc1 (stereo not drawn) | -12.4%
CCN(CC)Cc1cc(C(=O)N2CC(C)(C)[C@@](C)(O)C2)c(C)o1 | 8.35%
Cc1cccc(N2N=C(C(=O)NC(C)Cn3cccn3)CCC2=O)c1 (stereo not drawn) | -14.7%
CCS(=O)(=O)N1CCC2(CC1)CC(OCC1CC1)CO2 (stereo not drawn) | -7.89%
Cc1nccn1CCCN1CCCC(c2nccn2CC2CCC2)C1 (stereo not drawn) | -12.7%
CCCc1cc(C(=O)N(C)Cc2cccc3cnccc23)n(C)n1 | -2.24%
Cc1cc(C)n(C2CN(c3nc(N)nc4c3CCCC4)C2)n1 | -16.5%
O=C(c1ccnc(C2CCNCC2)c1)N1CCCC(CO)C1 (stereo not drawn) | -2.32%
CN(C)CCN1CCc2c(nnn2C)C1COCc1ccccc1 (stereo not drawn) | 10.5%
COc1nc2cc(C)ccc2cc1CN(C)Cc1n[nH]c2c1CCCC2 | 2.69%
Cc1noc(C)c1CN(C)c1ncnc2onc(C)c12 | 9.42%
COCCN1C[C@@H]2CN(Cc3ccsc3)CCC[C@]2(C(=O)O)C1 | -12.1%

Structure (SMILES) | cytotoxicity at 70.5 h
CNC(=O)C1Cn2ccnc2C2(CCN(Cc3csc(C)n3)CC2)O1 (stereo not drawn) | -2.63%
O=C(NCCCn1cncn1)NCC(c1ccccc1)N1CCCC1 (stereo not drawn) | 0.00173%
O=C(NCCO)c1sc2ncccc2c1C1CN(C2CCCC2)CCO1 (stereo not drawn) | -3.18%
CC(NCC1(N(C)C)CCOCC1)c1ccc(SC(F)F)cc1 (stereo not drawn) | 2.6%
CCS(=O)(=O)N1CCc2nc(N3CCOCC3)nc(N(C)C)c2CC1 | -7.6%
O=C(C1CC1)N1CCC(Oc2ccccc2Cl)CC1 | 20.6%
Cc1occc1C(=O)N1CCCN(Cc2nccn2C(C)C)CC1 | 20.3%
CN(CCO)C[C@@H]1CN(Cc2ccccc2C#N)C[C@@H]1CO | -3.5%
c1cc(CCN2CCCC2CN2CCCCC2)ccn1 (stereo not drawn) | 25.4%
CC(C)N1CC(c2ncc(-c3ccc4c(c3)OCCO4)[nH]2)CC1=O (stereo not drawn) | -5.64%
CCn1cc(NC(=O)NCC(c2cccs2)N(C)C)cn1 (stereo not drawn) | -4.7%
CC(C)n1nc(CN2CCCC2)c2c1CN(CC1CC1)CC2 | -1.54%
O=C(CCn1cnnn1)N1CCCC(CO)(CCc2ccccc2)C1 (stereo not drawn) | 18%
Cc1nc(CN2CCCN(C(=O)CCc3ccco3)CC2)cs1 | -12.4%
CNC(=O)[C@H]1C[C@@H]2CCN(Cc3ccncc3)C[C@H]2O1 | -6.07%
Cc1cc(C(C)(O)CNC(=O)OC(C)(C)C)c(C)o1 (stereo not drawn) | 0.912%
CN(C)CC(=O)N1CCc2ncnc(-c3cncnc3)c2CC1 | -3.5%
CCCN(CCC)C(=O)CN(C)Cc1cnc(C)s1 | 3.46%
Cc1cc(N(C)C)nc(N(C)Cc2csc(C)n2)n1 | -7.95%
CN1CCN(C(=O)c2n[nH]c3c2CN(Cc2nccs2)CC3)CC1 | -12%
CN(Cc1cccc2ncccc12)C(=O)CCC(F)(F)F | 27.3%

Structure (SMILES) | cytotoxicity at 70.5 h
CN(Cc1cnn(C)c1)C(=O)Nc1cccnc1-n1cccn1 | 14.6%
Cn1nc2c(cc1=O)CN(Cc1nc(C3CC3)no1)CC2 | -8.63%
CC(C)C(C)NC(=O)Nc1cccc(OCC#N)c1 (stereo not drawn) | -8.7%
O=C(Cc1ccccc1)N1Cc2nccn2CC(CN2CCCC2)C1 (stereo not drawn) | -0.449%
CCC(=O)c1ccc(OCC(=O)NCC2CCCO2)cc1 (stereo not drawn) | 0.0654%
O=C(CCCNc1ncccn1)N1CCCC(n2cncn2)C1 (stereo not drawn) | -7.32%
Cc1nsc(C(=O)NCCCc2ccccc2)n1 | -5.43%
Cc1ccc2c(c1)C1(CCN(C(=O)C3CC3)CC1)CC2N1CCOCC1 (stereo not drawn) | -3.95%
O=C(NCCc1cccnc1)c1cn(CCN2CCNCC2)nn1 | -5.26%
CCc1nc(C2CCCN(c3nccc(N4CCCC4)n3)C2)no1 (stereo not drawn) | -0.206%
CC1c2ccc(F)cc2CCN1C(=O)c1nc(=O)[nH][nH]1 (stereo not drawn) | -6.25%
COc1ccccc1C(=O)Nc1cc(CC(C)C)nn1C | -3.94%
OCCNc1nccc(-c2c[nH]nc2-c2cccnc2)n1 | -3.73%
COCCN1CCC2(CC1)CCN(Cc1ccccn1)CC2 | -1.25%
CC(C)CC(=O)NS(=O)(=O)c1ccc2c(c1)OCCCO2 | -8.04%
c1csc(CN2CCn3c(Cn4cncn4)cnc3C2)c1 | 27.5%
Fc1ccc(NCc2ccncc2)c(OC(F)F)c1 | -5.76%
COCC(=O)N1CCN(Cc2cc(-c3ccncc3)nn2C)CC1 | -3.57%
CCCn1ccnc1CN1CCC(Oc2ccc(Cl)cc2)(C(=O)O)CC1 | -10.4%
CCc1cc(=O)[nH]c2nnc(SCC(=O)OC)n12 | 9.93%
